This is an account of results in US10800754B2, “Heterocyclic amide compound” (TAKEDA PHARMACEUTICAL COMPANY LIMITED, priority 2016, dated 2020).

The assay has as its target T1, human PRS protein (Homo sapiens, UniProt P07814).
T1 construct: to construct His-Avi-hEPRS (998-1512) expression plasmid; His tag (N); Avi tag (N); TEV cleavage site (ENLYFQ/GS, encoded by forward primer hEPRS-TEV-NheF) (N); made in house; host or cells: E. coli BL21(DE3)
T1 sequence (P07814 998-1512): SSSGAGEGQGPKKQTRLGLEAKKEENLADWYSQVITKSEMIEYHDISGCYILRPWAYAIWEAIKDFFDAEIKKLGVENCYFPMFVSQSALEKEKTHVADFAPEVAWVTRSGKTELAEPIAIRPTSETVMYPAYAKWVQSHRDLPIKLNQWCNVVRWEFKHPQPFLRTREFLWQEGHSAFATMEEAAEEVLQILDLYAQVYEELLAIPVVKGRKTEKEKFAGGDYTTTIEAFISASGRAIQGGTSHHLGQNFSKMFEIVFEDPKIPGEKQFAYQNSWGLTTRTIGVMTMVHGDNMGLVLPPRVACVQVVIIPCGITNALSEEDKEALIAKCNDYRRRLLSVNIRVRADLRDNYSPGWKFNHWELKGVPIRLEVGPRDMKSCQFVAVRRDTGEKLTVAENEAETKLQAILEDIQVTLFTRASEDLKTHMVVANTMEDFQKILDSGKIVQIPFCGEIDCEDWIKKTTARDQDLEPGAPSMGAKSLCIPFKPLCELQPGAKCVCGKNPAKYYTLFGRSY
The assay can be described thus: PRS inhibitory activity (ATP/[32P]pyrophosphate exchange enzyme reaction). As to conditions: 300 nM test compound; recombinant human PRS (EPRS 998-1512); read-out: inhibitory rate (%) of PRS. The class given is biochemical. The procedure: The PRS inhibitory activity of the compounds of the present invention was evaluated by the following method.
An expression plasmid of Catalytic Domain of human EPRS was obtained by PCR using human skeletal muscle cDNA Library (Takara Bio Inc.) as a template and 2 kinds of Primers 5′-[…]-3′ (hEPRS-TEV-NheF) (SEQ ID NO: 1) and 5′-[…]-3′ (hEPRS-St-Not-R) (SEQ ID NO: 2). PCR was performed using PrimeStar GXL DNA Polymerase (Takara Bio Inc.) and included (1) 98° C., 1 min, (2) cycles of 98° C., 10 sec, 65° C., 10 sec, 72° C., 1 min, and (3) reaction at 72° C., 1 min. This was cleaved with Nhe I and Not I (Takara Bio Inc.) and inserted using Ligation High (TOYOBO CO., LTD.) into the Nhe I/Not I site of pET21a (Novagen) with His-Avitag inserted thereinto. This was introduced into ECOS JM109 (NIPPON GENE CO., LTD.) to construct His-Avi-hEPRS (998-1512) expression plasmid.
Recombinant human PRS protein was prepared by transforming the His-Avi-hEPRS (998-1512) expression plasmid prepared above into ECOS Competent E. coli BL21(DE3) (NIPPON GENE CO., LTD.). Escherichia coli obtained by transformation was inoculated into 300 mL of LB medium (1% peptone, 0.5% yeast extract, 0.5% sodium chloride, 0.01% ampicillin) and cultured at 30° C. for 16 hr. The obtained culture medium was transferred into a jar culture tank charged with 6 L of the main fermentation medium (0.3% potassium dihydrogen phosphate, 0.6% disodium hydrogen phosphate, 0.1% ammonium chloride, 0.05% sodium chloride, 0.024% magnesium sulfate, 0.02% NEWPOL LB-625, 1.5% sorbitol, 1.5% casamino acid, 0.5% yeast extract, 0.01% ampicillin) and culturing was started at 37° C., quantity of airflow 5 L/min, stirring rotating speed 400 rpm. At the time point when the turbidity of the culture medium reached about 550 Klett units, the culture temperature was lowered to 16° C., isopropyl-β-D-thiogalactopyranoside (IPTG) was added to the final concentration 0.1 mM, and culturing was performed for another 16 hr to induce expression of human PRS. After completion of culturing, the culture medium was centrifuged at 5,000 rpm for 10 min. The obtained human PRS expressing Escherichia coli was suspended in a buffer containing 50 mM Tris-HCl (pH 8.0), 150 mM NaCl, 1 mM DTT, 5 U/ml Benzonase, 20 mM Imidazole and sonicated using Sonifier (BRANSON). The homogenate was centrifuged (33,000×G, 60 min, Beckman Coulter), the obtained supernatant was subjected to adsorption by passage through Ni-NTA Superflow (QIAGEN) column equilibrated in advance with 50 mM Tris-HCl (pH 8.0), 300 mM NaCl, 1 mM DTT, and elution was performed with a buffer containing 50 mM Tris-HCl (pH 8.0), 300 mM NaCl, 1 mM DTT, 250 mM Imidazole. Furthermore, gel filtration was performed using […] equilibrated in advance with a buffer containing 50 mM Tris-HCl (pH 8.0), 150 mM NaCl, 1 mM DTT, 10% glycerol to give purified human PRS protein. The protein concentration was measured using BCA Protein Assay Kit (PIERCE) and BSA as the standard.
A test compound was dissolved in 5 μL of an assay buffer (50 mM Tris-HCl (pH 7.5), 20 mM KCl, 1 mM DTT, 0.01% Tween 20) and incubated for 60 min with 5 μL of 40 nM human PRS protein dissolved in the assay buffer containing 40 mM MgCl2. An enzyme reaction of the human PRS protein was started by adding 10 μL of a substrate solution containing 300 μM ATP, 160 μM L-Proline, 400 μM pyrophosphate, [^32P]pyrophosphate (PerkinElmer, Waltham, Mass.) prepared to 1 MBq/mL. After incubation at room temperature for 30 min, the reaction was discontinued by adding 50 μL of discontinuation/washing solution (1M HCl, 200 mM sodium pyrophosphate) to the reaction mixture. The reaction solution was transferred to a filter plate (Merck Millipore, Billerica, Mass.) previously added with 200 μL of charcoal solution (0.5% HCl solution containing 10% charcoal (w/v)). […]

In the case of `Cc1cc(N2CCC(C)(C)C2=O)cc(NC(=O)Cc2cccc(-c3cnn(C)c3)c2)n1` [Example 49, N-(4-(3,3-dimethyl-2-oxopyrrolidin-1-yl)-6-methylpyridin-2-yl)-2-(3-(1-methyl-1H-pyrazol-4-yl)phenyl)acetamide], the inhibition at 0.3 µM was 83%.

For `Cc1cc(N2CC(C)C(C#N)(C3CC3)C2=O)cc(NC(=O)Cc2ccccc2)n1` (centres unmarked) [Example 54, N-(4-(3-cyano-3-cyclopropyl-4-methyl-2-oxopyrrolidin-1-yl)-6-methylpyridin-2-yl)-2-phenylacetamide], the inhibition at 0.3 µM stood at 77%. As for `Cn1cc(-c2cccc(CC(=O)Nc3cc(N4CC[C@@](C#N)(C5CC5)C4=O)cc(C(F)(F)F)n3)c2)cn1` [Example 61, N-(4-((3S)-3-cyano-3-cyclopropyl-2-oxopyrrolidin-1-yl)-6-(trifluoromethyl)-pyridin-2-yl)-2-(3-(1-methyl-1H-pyrazol-4-yl)phenyl)acetamide], the inhibition at 0.3 µM is 84%.

For `COc1cc(N2CC[C@@](C#N)(C3CC3)C2=O)cc(NC(=O)Cc2cccc(-c3cnn(C)c3)c2)n1` [Example 62, N-(4-((3S)-3-cyano-3-cyclopropyl-2-oxopyrrolidin-1-yl)-6-methoxypyridin-2-yl)-2-(3-(1-methyl-1H-pyrazol-4-yl)phenyl)acetamide], the inhibition at 0.3 µM stood at 92%.

Regarding `N#C[C@@]1(C2CC2)CCN(c2ccnc(NC(=O)Cc3cccc(-c4cnn(CC(N)=O)c4)c3)c2)C1=O` [Example 69, 2-(3-(1-(2-amino-2-oxoethyl)-1H-pyrazol-4-yl)phenyl)-N-(4-((3S)-3-cyano-3-cyclopropyl-2-oxopyrrolidin-1-yl)pyridin-2-yl)acetamide], the inhibition at 0.3 µM is 99%.

Consider `COC(=O)Cn1cc(-c2cccc(CC(=O)Nc3cc(N4CC[C@@](C#N)(C5CC5)C4=O)ccn3)c2)cn1` [Example 73, methyl (4-(3-(2-((4-((3S)-3-cyano-3-cyclopropyl-2-oxopyrrolidin-1-yl)pyridin-2-yl)amino)-2-oxoethyl)phenyl)-1H-pyrazol-1-yl)acetate], for which the inhibition at 0.3 µM is 99%. Take `N#C[C@@]1(C2CC2)CCN(c2ccnc(NC(=O)Cc3cccc(-c4cnn(CC5CCCC5)c4)c3)c2)C1=O` [Example 75, N-(4-((3S)-3-cyano-3-cyclopropyl-2-oxopyrrolidin-1-yl)pyridin-2-yl)-2-(3-(1-(cyclopentylmethyl)-1H-pyrazol-4-yl)phenyl)acetamide]: the inhibition at 0.3 µM came to 97%. For the compound `N#C[C@@]1(C2CC2)CCN(c2ccnc(NC(=O)Cc3cccc(-c4cnn(CC5CCCO5)c4)c3)c2)C1=O` (stereo partly drawn) [Example 76, N-(4-((3S)-3-cyano-3-cyclopropyl-2-oxopyrrolidin-1-yl)pyridin-2-yl)-2-(3-(1-(tetrahydrofuran-2-ylmethyl)-1H-pyrazol-4-yl)phenyl)acetamide], the inhibition at 0.3 µM was determined as 98%. Regarding `N#C[C@@]1(C2CC2)CCN(c2ccnc(NC(=O)Cc3cccc(-c4cnn(CCn5cccn5)c4)c3)c2)C1=O` [Example 80, N-(4-((3S)-3-cyano-3-cyclopropyl-2-oxopyrrolidin-1-yl)pyridin-2-yl)-2-(3-(1-(2-(1H-pyrazol-1-yl)ethyl)-1H-pyrazol-4-yl)phenyl)acetamide], the inhibition at 0.3 µM stood at 98%. As for `N#C[C@@]1(C2CC2)CCN(c2ccnc(NC(=O)Cc3cccc(-c4cnn(CCn5ccnc5)c4)c3)c2)C1=O` [Example 81, N-(4-((3S)-3-cyano-3-cyclopropyl-2-oxopyrrolidin-1-yl)pyridin-2-yl)-2-(3-(1-(2-(1H-imidazol-1-yl)ethyl)-1H-pyrazol-4-yl)phenyl)acetamide], the inhibition at 0.3 µM amounted to 97%.

As for `N#C[C@@]1(C2CC2)CCN(c2ccnc(NC(=O)Cc3cccc(-c4cnn(CC5CCCCC5)c4)c3)c2)C1=O` [Example 82, N-(4-((3S)-3-cyano-3-cyclopropyl-2-oxopyrrolidin-1-yl)pyridin-2-yl)-2-(3-(1-(cyclohexylmethyl)-1H-pyrazol-4-yl)phenyl)acetamide], the inhibition at 0.3 µM was found to be 92%. The same measure for `COCCOCCn1cc(-c2cccc(CC(=O)Nc3cc(N4CC[C@@](C#N)(C5CC5)C4=O)ccn3)c2)cn1` [Example 86, N-(4-((3S)-3-cyano-3-cyclopropyl-2-oxopyrrolidin-1-yl)pyridin-2-yl)-2-(3-(1-(2-(2-methoxyethoxy)ethyl)-1H-pyrazol-4-yl)phenyl)acetamide]: 96%; for `N#C[C@@]1(C2CC2)CCN(c2ccnc(NC(=O)Cc3cccc(-c4cnn(CCc5ccccc5)c4)c3)c2)C1=O` [Example 88, N-(4-((3S)-3-cyano-3-cyclopropyl-2-oxopyrrolidin-1-yl)pyridin-2-yl)-2-(3-(1-(2-phenylethyl)-1H-pyrazol-4-yl)phenyl)acetamide]: 97%. Then `CS(=O)(=O)CCn1cc(-c2cccc(CC(=O)Nc3cc(N4CC[C@@](C#N)(C5CC5)C4=O)ccn3)c2)cn1` [Example 89, N-(4-((3S)-3-cyano-3-cyclopropyl-2-oxopyrrolidin-1-yl)pyridin-2-yl)-2-(3-(1-(2-(methylsulfonyl)ethyl)-1H-pyrazol-4-yl)phenyl)acetamide], with 100%.

As to `N#C[C@@]1(C2CC2)CCN(c2ccnc(NC(=O)Cc3cccc(-c4cnn(CC(C(F)(F)F)C(F)(F)F)c4)c3)c2)C1=O` [Example 92, N-(4-((3S)-3-cyano-3-cyclopropyl-2-oxopyrrolidin-1-yl)pyridin-2-yl)-2-(3-(1-(3,3,3-trifluoro-2-(trifluoromethyl)propyl)-1H-pyrazol-4-yl)phenyl)acetamide], the inhibition at 0.3 µM turned out to be 93%.

For the compound `N#C[C@@]1(C2CC2)CCN(c2ccnc(NC(=O)Cc3cccc(-c4cnn(CC(F)(F)C(F)(F)F)c4)c3)c2)C1=O` [Example 96, N-(4-((3S)-3-cyano-3-cyclopropyl-2-oxopyrrolidin-1-yl)pyridin-2-yl)-2-(3-(1-(2,2,3,3,3-pentafluoropropyl)-1H-pyrazol-4-yl)phenyl)acetamide], the inhibition at 0.3 µM stood at 96%. Take `N#C[C@@]1(C2CC2)CCN(c2cc(NC(=O)Cc3cccc(Cl)c3)ncn2)C1=O` [Example 126, 2-(3-chlorophenyl)-N-(6-((3S)-3-cyano-3-cyclopropyl-2-oxopyrrolidin-1-yl)pyrimidin-4-yl)acetamide]: the inhibition at 0.3 µM turned out to be 57%.
